One may read the kinetic solubility as the concentration staying in solution when a stock, usually in DMSO, is diluted into the medium.

≈ marks a conversion by molar mass, not a printed value.

The conditions of this series: buffer; pH 7.4; 200.0 µM.
Compound `Cn1ccnc1C(=O)c1cccc(Br)c1` returned a kinetic solubility above 39.8 µg/mL.
With `COc1ccc(Cl)cc1NC(=O)NCc1cccnc1` the figure was above 43.8 µg/mL; with `CCOc1cccc(C(=O)Nc2ccc3c(c2)OCCO3)c1`, 27.3 µg/mL (≈ 91.2 µM).
For `O=C(CN1CCCc2ccccc21)NCCc1ccc(F)cc1`, the kinetic solubility is above 46.9 µg/mL.
With `O=S(=O)(Nc1ccc2ccccc2n1)c1ccccc1` the figure was above 42.6 µg/mL; with `COC(=O)C1=C(C)NC(C)=C(C(=O)OC)C1c1ccco1`, 21.9 µg/mL (≈ 75.2 µM); with `CCOc1ccc(NC(=O)c2ccccc2SC)cc1`, 2.4 µg/mL (≈ 8.35 µM).
With `COc1ccc(C(=O)C(C)OC(=O)CNC(=O)c2ccco2)cc1` (configuration not stated) the figure was above 49.7 µg/mL; with `CCC(C)c1ccccc1NS(=O)(=O)c1cnn(CC)c1` (configuration not stated), above 46.1 µg/mL; with `Cc1cccc(C)c1CC(=O)N1CCOCC1`, 34.6 µg/mL (≈ 148 µM).
With `Nc1nc(Nc2ccccc2)nc(C(F)(F)F)n1` the figure was above 38.3 µg/mL.
The compound `COc1ccc(NCc2ccsc2)cc1` returned a kinetic solubility of 31.4 µg/mL (≈ 143 µM).
With `N#Cc1sc2nccc(Nc3ccccc3)c2c1N` the figure was below 0.1 µg/mL.
Compound `Cc1cccc(C(=O)O/N=C(\N)CS(=O)(=O)c2ccccc2)c1` came in with a kinetic solubility of 1.6 µg/mL (≈ 4.81 µM).
For the compound `CCOc1ccccc1NC(=O)C(NC(=O)C1CCC(C)CC1)C(C)C` (configuration not stated), the solubility (kinetic) stood at 4.9 µg/mL (≈ 13.6 µM).
In the case of `COc1ccc(CN2CCc3ccccc3C2)c(OC)c1`, the kinetic solubility was 29.6 µg/mL (≈ 104 µM).
`COc1ccc2c(c1)CCC/C2=N/OC(=O)c1ccccc1OC` came in with a kinetic solubility of 2.6 µg/mL (≈ 7.99 µM).
Regarding `O=c1cc(O)c2sc3nc(C(F)(F)F)c4c(c3c2[nH]1)CCCCC4`, the kinetic solubility was above 53.2 µg/mL.
With `COC(=O)c1cccc(NC(=O)c2cnccn2)c1` the figure was 9.5 µg/mL (≈ 36.9 µM); with `CSc1sc(C(=O)Nc2ccc(F)cc2F)c2c1C=CCC2`, 2.9 µg/mL (≈ 8.59 µM).
`Cc1ccc(S(=O)(=O)Nc2cccnc2)c(C)c1C` showed a kinetic solubility of 9.1 µg/mL (≈ 32.9 µM).
Under `CN(CCO)C(=O)C(c1ccccc1)c1ccccc1` stands 36.2 µg/mL (≈ 134 µM).
With `CC(=O)N1CCN(C(=O)c2cc(=O)c3ccccc3o2)CC1` the figure was above 45 µg/mL; with `Cc1cc2c(cc1C)C(c1ccccc1OC(C)C)CC(=O)N2` (configuration not stated), below 0.7 µg/mL.
Under `Cc1sc2nc(COC(=O)c3c(F)cccc3F)[nH]c(=O)c2c1C` stands 4.2 µg/mL (≈ 12 µM); under `Cc1cc(C)c(O)c(NC(=S)NC(=O)Cc2ccccc2)c1`, 3.9 µg/mL (≈ 12.4 µM); under `O=C(C1CC1)N(Cc1nc2ccccc2c(=O)[nH]1)Cc1cccs1`, above 50.9 µg/mL.
Regarding `CCCOc1ccc(C(=O)NCC2OCCc3ccccc32)cc1OC` (configuration not stated), the solubility (kinetic) is 4.7 µg/mL (≈ 13.2 µM).
With `Cc1ccccc1N=CC1=C(O)c2ccccc2C1=O` the figure was below 0.6 µg/mL; with `CC(CN1C(C)CCCC1C)OC(=O)c1cccc(F)c1.Cl` (configuration not stated), above 49.5 µg/mL.
On to `O=C(CN1C(=O)c2ccccc2C1=O)Nc1ccc(Cl)cn1`, for which the solubility (kinetic) came to 4.6 µg/mL (≈ 14.6 µM).
With `O=C(Nc1nccs1)OCc1ccccc1` the figure was 12.8 µg/mL (≈ 54.6 µM); with `Cc1ccccc1NC(=O)C(C)SCc1ccccc1` (configuration not stated), above 42.8 µg/mL.
`COc1ccc(NC(=O)COc2ccccc2)cc1NC(=O)c1ccco1` yielded a solubility (kinetic) of 1.2 µg/mL (≈ 3.28 µM).
For `Cc1c(-c2ccc(Br)cc2)[n+](=O)c2c(n1[O-])CCCC2`, the kinetic solubility is above 50.3 µg/mL.
Consider `CC1Oc2ccccc2N(CC(=O)NC2CCCCC2)C1=O` (configuration not stated), for which the kinetic solubility was above 45.4 µg/mL.
With `CC(C)NCC#CCOc1ccc(Cl)cc1.O=C(O)C(=O)O` the figure was 42.6 µg/mL; with `O=[N+]([O-])c1ccc([N+](=O)[O-])c(Nc2ccc(N3CCOCC3)cc2)c1`, below 0.2 µg/mL.
The compound `N#Cc1ccc(C(=O)Nc2cccc3ccccc23)c(F)c1` yielded a solubility (kinetic) of 0.9 µg/mL (≈ 3.1 µM).
Regarding `CCN1C(=O)/C(=C\N(C)C)S/C1=N\S(=O)(=O)c1ccccc1`, the solubility (kinetic) is 49.3 µg/mL (≈ 145 µM).
`Cn1cc(S(=O)(=O)Oc2ccccc2)c(=O)n(C)c1=O` registered a solubility (kinetic) of 39.5 µg/mL (≈ 133 µM).
With `O=C(NCc1ccccc1Br)c1ccc2c(c1)OCCO2` the figure was 11.6 µg/mL (≈ 33.3 µM).
Under `O=CN1CCN(C(=O)c2cc3cc(Cl)ccc3[nH]2)CC1` stands 34.9 µg/mL (≈ 120 µM); under `COc1cc2c(cc1OC)CN(C(=O)/C=C/c1cccs1)CC2`, above 49.4 µg/mL.
Under `CCOc1ccccc1NC(=O)N1CCc2ccccc2C1` stands 33.1 µg/mL (≈ 112 µM).
With `O=[N+]([O-])c1cccnc1N1CCCNCC1`, the kinetic solubility stood at 30.4 µg/mL (≈ 137 µM).
Under `O=C(NCCc1ccccc1)c1ccc(Cl)cc1[N+](=O)[O-]` stands above 45.7 µg/mL; under `Cc1ccc(OCC(=O)OCC(=O)NC2CCCC2)cc1C`, 20 µg/mL (≈ 65.5 µM); under `Cc1ccc(NC(=O)c2ccc3c(c2)OCCO3)nc1`, above 40.5 µg/mL.
Under `Cc1cccc(C)c1N1CCN(C(=O)N2CCOCC2)CC1` stands above 45.5 µg/mL.
With `COc1ccc(NC(=O)C2CC(c3ccccc3Cl)=NO2)cc1` (configuration not stated) the figure was 37.6 µg/mL (≈ 114 µM); with `Cn1c(N)c(C(=O)CSc2nc(N)cc(N)n2)c(=O)n(C)c1=O`, 3 µg/mL (≈ 8.89 µM).

Values taken from PubChem BioAssay AID1996.
